Earlier results on one compound are cited in patent US20060258708A1, “Method for treating Parkinson's disease and other neurological diseases” (priority 2005, published 2006).

The conditions of series [1]: racemic thalidomide, animals.
Series [2] has as its system tumor necrosis factor alpha production by stimulated monocytes.
The conditions of series [3]: humans.

Structures are written as SMILES.

Turning to `O=C1CCC(N2C(=O)c3ccccc3C2=O)C(=O)N1` (racemic) [Thalidomide, N-phthalidoglutarimide], in series [1], the “toxicity in a series of animal studies” value is listed as “has not been toxic”. For the same compound, the “effect on tumor necrosis factor alpha production” value in series [2] is “inhibit”. Besides, in series [3] (100 to 200 mg ingested), the maximal blood concentration is 0.9 to 1.5 mg/L and the “time at which maximal blood concentration is attained” value is 4 to 6 h. Moreover, the oral absorption entry in series [3] (orally administered) is on record as “poorly absorbed”.
